The results in this text go back to patent publication US20090258873A1, “Novel tetrahydropyridothiophenes” (priority 2005, published 2009).

The subject of experiment [1] is RKO (RKOp27) human colon adenocarcinoma cells. Kind of experiment: Alamar Blue cell viability assay, anti-proliferative/cytotoxic activity on proliferating RKOp27 cells. To be noted: no Ponasterone A, 72 hours incubation, read-out: IC50 RKO p27 uninduced (proliferating). Format: cell-based. The procedure: The anti-proliferative I cytotoxic activity of the compounds described herein, can be tested on subclones of RKO (RKOp27) human colon adenocarcinoma cells (Schmidt et al., Oncogene 19, 2423-2429; 2000) using the Alamar Blue cell viability assay (described in O'Brien et al. Eur J Biochem 267, 5421-5426, 2000). The compounds are dissolved as 20 mM solutions in dimethylsulfoxide (DMSO) and subsequently diluted in semi-logarithmic steps. DMSO dilutions are further diluted 1:100 into Dulbecco's modified Eagle's medium (DMEM) containing 10% fetal calf serum to a final concentration twice as much as the final concentration in the test. RKO subclones are seeded into 96 well flat bottom plates at a density of 5000 cells per well in a volume of 50 μl per well. 24 hours after seeding the 50 μl each of the compound dilutions in DMEM medium are added into each well of the 96 Well plate. Each compound dilution is tested as quadruplicates. Wells containing untreated control cells are filled with 50 μl DMEM medium containing 1% DMSO. The cells are then incubated with the substances for 72 hours at 37° C. in a hunified atmosphere containing 5% carbon dioxide. To determine the viability of the cells, 10 μl of an Alamar Blue solution (Biosource) are added and the fluorescence is measured at an extinction of 544 nm and an emission of 590 nm. For the calculation of the cell viability the emission value from untreated cells is set as 100% viability and the emission rates of treated cells are set in relation to the values of untreated cells. Viabilities are expressed as % values.
The corresponding IC50 values of the compounds for anti-proliferative/cytotoxic activity are determined from the concentration-effect curves.
Representative IC50 values for anti-proliferation/cytotoxicity determined in the mentioned assay follow from the following table A, in which the numbers of the compounds correspond to the numbers of the examples.
Background: The colour change of resazurin is a common sign of viable cells or microbes.

The subject of experiment [2] is RKO colon adenocarcinoma cells (RKOp27) arrested by ectopic p27Kip1. Kind of experiment: Alamar Blue cell viability assay on RKOp27 cells arrested by p27Kip1 expression induced with Ponasterone A (cell cycle specific mode of action). In kind it is cell-based. To be noted: Homo sapiens, RKOp27 cells arrested by p27Kip1 induced with 10 μM Ponasterone A, 72 hours incubation, read-out: IC50 RKO p27 induced (arrested). On the procedure: To determine the cell cycle specific mode of action, subclones of RKO colon adenocarcinoma cells (RKOp27 or RKOp21 as described by Schmidt et al. in Oncogene 19, 2423-2429; 2000) are seeded into 96 well flat bottom plates at a density of 15000 cells per well in a volume of 50 μl per well in DMEM growth medium with 10% FCS containing 10 μM Ponasterone A. 24 hours after seeding the 50 μl each of the compound dilutions in DMEM medium are added into each well of the 96 Well plate. Each compound dilution is tested as quadruplicates. Wells containing untreated control cells are filled with 50 μl DMEM medium containing 1% DMSO. The cells are then incubated with the substances for 72 hours at 37° C. in a humidified atmosphere containing 5% carbon dioxide. To determine the viability of the cells, 10 μl of an Alamar Blue solution (Biosource) are added and the fluorescence was measured at an extinction of 544 nm and an emission of 590 nm. For the calculation of the cell viability the emission value from untreated cells is set as 100% viability and the emission rates of treated cells are set in relation to the values of untreated cells. Viabilities are expressed as % values. Viability is compared of proliferating cells grown in the absence of the inducer Ponasterone A, versus viability of cells arrested by the expression of ectopic p27Kip1 induced by Ponasterone A.

A value given as a limit tells only on which side of the number the result lay.

The term IC50 denotes the concentration that inhibits the measured activity by half. For the compound `CCCC(=O)N1CCc2c(sc(NC(=O)CC(C)c3ccccc3)c2C#N)C1` (racemic) [Example 27, (RS)—N-(6-Butyryl-3-cyano-4,5,6,7-tetrahydro-thieno[2,3-c]pyridin-2-yl)-3-phenyl-butyramide], the values for the IC50 in experiment [1] and in experiment [2] were 0.3 to 2 µM and > 100 µM, respectively.
For the compound `N#Cc1c(NC(=O)CCc2ccco2)sc2c1CCN(C(=O)Cc1cccnc1)C2` [Example 11, N-[3-Cyano-6-(2-pyridin-3-yl-ethanoyl)-4,5,6,7-tetrahydro-thieno[2,3-c]pyridin-2-yl]-3-furan-2-yl-propionamide], the figures for the IC50 in experiment [1] and in experiment [2] were ≤ 0.3 µM and > 100 µM, respectively.
With `Cc1cn(CC(=O)N2CCc3c(sc(NC(=O)CCc4ccccc4)c3C#N)C2)cn1` [Example 41, N-{3-Cyano-6-[2-(4-methyl-imidazol-1-yl)-ethanoyl]-4,5,6,7-tetrahydro-thieno[2,3-c]pyridin-2-yl}-3-phenyl-propionamide], the IC50 is ≤ 0.3 µM in experiment [1] and > 100 µM in experiment [2].
In the case of `CC(CC(=O)Nc1sc2c(c1C#N)CCN(C(=O)Cc1ccncc1)C2)c1ccccc1` (racemic) [Example 24, (RS)—N-[3-Cyano-6-(2-pyridin-4-yl-ethanoyl)-4,5,6,7-tetrahydro-thieno[2,3-c]pyridin-2-yl]-3-phenyl-butyramide], the results for the IC50 in experiment [1] and in experiment [2] were ≤ 0.3 µM and > 100 µM, respectively.
`N#Cc1c(NC(=O)CCc2ccccc2)sc2c1CCN(C(=O)CCc1ccccn1)C2` [Example 30, N-[3-Cyano-6-(3-pyridin-2-yl-propanoyl)-4,5,6,7-tetrahydro-thieno[2,3-c]pyridin-2-yl]-3-phenyl-propionamide]: the results for the IC50 in experiment [1] and in experiment [2] were ≤ 0.3 µM and > 100 µM, respectively.
Turning to `Cc1nccn1CCC(=O)N1CCc2c(sc(NC(=O)CCc3ccccc3)c2C#N)C1` [Example 33, N-{3-Cyano-6-[3-(2-methyl-imidazol-1-yl)propanoyl]-4,5,6,7-tetrahydro-thieno[2,3-c]pyridin-2-yl}-3-phenyl-propionamide], the IC50 in experiment [1] was 0.3 to 2 µM; in experiment [2], ≥ 10 µM.
Take `CC(CC(=O)Nc1sc2c(c1C#N)CCN(C(=O)CCc1cccnc1)C2)c1ccccc1` (racemic) [Example 25, (RS)—N-[3-Cyano-6-(3-pyridin-3-yl-propanoyl)-4,5,6,7-tetrahydro-thieno[2,3-c]pyridin-2-yl]-3-phenyl-butyramide]: the IC50 is 0.3 to 2 µM in experiment [1] and > 100 µM in experiment [2].
The corresponding values for `CC(CC(=O)Nc1sc2c(c1C#N)CCN(C(=O)Cc1cccnc1)C2)c1ccccc1` (racemic) [Example 23, (RS)—N-[3-Cyano-6-(2-pyridin-3-yl-ethanoyl)-4,5,6,7-tetrahydro-thieno[2,3-c]pyridin-2-yl]-3-phenyl-butyramide] are ≤ 0.3 µM and > 100 µM.
Regarding `N#Cc1c(NC(=O)CCc2ccccc2)sc2c1CCN(C(=O)CCc1cccnc1)C2` [Example 1, N-[3-Cyano-6-(3-pyridn3-yl-propanoyl)-4,5,6,7-tetrahydro-thieno[2,3-c]pyridin-2-yl]-3-phenyl-propionamide], the IC50 in experiment [1] was 0.3 to 2 µM; in experiment [2] it was > 100 µM.
Regarding `CC(CC(=O)Nc1sc2c(c1C#N)CCN(C(=O)Cn1ccnc1)C2)c1ccccc1` (racemic) [Example 26], the IC50 is 0.3 to 2 µM in experiment [1] and > 100 µM in experiment [2].
The like results for `Cc1nccn1CC(=O)N1CCc2c(sc(NC(=O)CCc3ccccc3)c2C#N)C1` [Example 38, N-{3-Cyano-6-[2-(2-methyl-imidazol-1-yl)-ethanoyl]-4,5,6,7-tetrahydro-thieno[2,3-c]pyridin-2-yl}-3-phenyl-propionamide] were, in that order, ≤ 0.3 µM and > 100 µM.
For `N#Cc1c(NC(=O)CCc2ccco2)sc2c1CCN(C(=O)CCc1cccnc1)C2` [Example 12, N-[3-Cyano-4-6-(3-pyridin-3-yl-propanoyl)-4,5,6,7-tetrahydro-thieno[2,3-c]pyridin-2-yl]-3-furan-2-yl-propionamide], the figures for the 50% inhibitory concentration (IC50) in experiment [1] and in experiment [2] were ≤ 0.3 µM and > 100 µM, respectively.
The like results for `CN1CCN(CCC(=O)N2CCc3c(sc(NC(=O)CCc4ccccc4)c3C#N)C2)CC1` [Example 17, N-[3-Cyano-6-[3-(4-methyl-piperazin-1-yl)-propanoyl]-4,5,6,7-tetrahydro-thieno[2,3-c]pyridin-2-yl]-3-phenyl-propionamide] were, in that order, 0.3 to 2 µM and ≥ 40 µM.
The like results for `N#Cc1c(NC(=O)CCc2ccccc2)sc2c1CCN(C(=O)Cc1ccccn1)C2` [Example 3, N-[3-Cyano-(2-pyridin-2-yl-ethanoyl)-4,5,6,7-tetrahydro-thieno[2,3-]pyridin-2-yl]-3-phenyl-propionamide] were, in that order, ≤ 0.3 µM and > 100 µM.
With `N#Cc1c(NC(=O)CCc2ccccc2)sc2c1CCN(C(=O)CCN1CCOCC1)C2` [Example 18, N-[3-Cyano-6-(3-morpholin-4-yl-propanoyl)-4,5,6,7-tetrahydro-thieno[2,3-c]pyridin-2-yl]-3-phenyl-propionamide], the IC50 in experiment [1] was 0.3 to 2 µM; in experiment [2], > 100 µM.
The corresponding values for `COCC(=O)N1CCc2c(sc(NC(=O)CCc3ccccc3)c2C#N)C1` [Example 4, N-[3-Cyano-6-(2-methoxy-ethanoyl)-4,5,6,7-tetrahydro-thieno[2,3-c]pyridin-2-yl]-3-phenyl-propionamide] are ≤ 0.3 µM and > 100 µM.
Take `CC(CC(=O)Nc1sc2c(c1C#N)CCN(C(=O)CCc1ccccn1)C2)c1ccccc1` (racemic) [Example 29, (RS)—N-[3-Cyano-6-(3-pyridin-2-yl-propanoyl)-4,5,6,7-tetrahydro-thieno[2,3-c]pyridin-2-yl]-3-phenyl-butyramide]: the IC50 in experiment [1] is 0.3 to 2 µM; in experiment [2] it was > 100 µM.
For the compound `COCCOCC(=O)N1CCc2c(sc(NC(=O)CCc3ccccc3)c2C#N)C1` [Example 5], the figures for the IC50 in experiment [1] and in experiment [2] were 0.3 to 2 µM and > 100 µM, respectively.
For the compound `N#Cc1c(NC(=O)CCc2ccccc2)sc2c1CCN(C(=O)CCc1ccncc1)C2` [Example 39, N-[3-Cyano-6-(3-pyridin-4-yl-propanoyl)-4,5,6,7-tetrahydro-thieno[2,3-c]pyridin-2-yl]-3-phenyl-propionamide], the IC50 in experiment [1] is ≤ 0.3 µM; in experiment [2], > 100 µM.
The like results for `CC(CC(=O)Nc1sc2c(c1C#N)CCN(C(=O)Cc1ccccn1)C2)c1ccccc1` (racemic) [Example 22, (RS)—N-[3-Cyano-6-(2-pyridin-2-yl-ethanoyl)-4,5,6,7-tetrahydro-thieno[2,3-c]pyridin-2-yl]-3-phenyl-butyramide] were, in that order, ≤ 0.3 µM and > 100 µM.
The like results for `N#Cc1c(NC(=O)CCc2ccco2)sc2c1CCN(C(=O)CCn1ccnc1)C2` [Example 15, N-[3-Cyano-6-(3-Imidazo-1-yl-propanoyl)-4,5,6,7-tetrahydro-thieno[2,3-c]pyridin-2-yl]-3-furan-2-yl-propionamide] were, in that order, ≤ 0.3 µM and > 100 µM.
Consider `N#Cc1c(NC(=O)CCc2ccccc2)sc2c1CCN(C(=O)Cc1ccncc1)C2` [Example 20, N-[3-Cyano-6-(2-pyridin-4-yl-ethanoyl)-4,5,6,7-tetrahydro[2,3-c]pyridin-2-yl]-3-phenyl-propionamide], for which the IC50 is ≤ 0.3 µM in experiment [1] and > 100 µM in experiment [2].
